Test results reported in patent US10457709B2, “Antimicrobial peptides, their variants and uses” (priority 2015, dated 2019).
Where two headings read alike, the source gives them in different places. Square brackets hold non-standard residues; d marks the D form. Peptide text beside a SMILES is read from it.

Legend:
[1] = tested on: Acinetobacter baumannii clinical strains; assay type: cell-based; set-up: Minimum inhibitory concentration: unit: μg/ml; details: microdilution, Muller Hinton broth-cation adjusted, 0.02% BSA, 0.2% acetic acid
Outline: (§1)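 Broth microdilution in Mueller Hinton broth, inoculum adjusted to 5.0×10^5 cfu/ml, peptides tested at 0.125 to 128 μg/ml, 37° C for 20 to 24 hours. Yeast assays were run in potato dextrose broth. MIC was taken as the lowest concentration with no visible growth.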

[2] = tested on: Enterobacter cloacae clinical strains; assay type: cell-based; set-up: Minimum inhibitory concentration: unit: μg/ml; details: microdilution, Muller Hinton broth-cation adjusted, 0.02% BSA, 0.2% acetic acid
Outline: as §1

[3] = tested on: Proteus mirabilis clinical strains; assay type: cell-based; set-up: Minimum inhibitory concentration: unit: μg/ml; details: for Minimum inhibitory concentration: microdilution, Muller Hinton broth-cation adjusted, 0.02% BSA, 0.2% acetic acid
Outline: as §1

[4] = tested on: Serratia marcescens clinical strains; assay type: cell-based; set-up: Minimum inhibitory concentration: unit: μg/ml; details: for Minimum inhibitory concentration: microdilution, Muller Hinton broth-cation adjusted, 0.02% BSA, 0.2% acetic acid
Outline: as §1

[5] = tested on: Staphylococcus aureus clinical strains; assay type: cell-based; set-up: Minimum inhibitory concentration: unit: μg/ml; details: microdilution, Muller Hinton broth-cation adjusted, 0.02% BSA, 0.2% acetic acid
Outline: as §1

[6] = tested on: Streptococcus pneumoniae clinical strains; assay type: cell-based; set-up: Minimum inhibitory concentration: unit: μg/ml; details: microdilution, Muller Hinton broth-cation adjusted, 0.02% BSA, 0.2% acetic acid
Outline: as §1

[7] = tested on: Acinetobacter johnsonii clinical strains; assay type: cell-based; details: Acinetobacter johnsonii clinical strain 1; microdilution, Muller Hinton broth-cation adjusted, 0.02% BSA, 0.2% acetic acid
Outline: as §1

[8] = tested on: Escherichia coli clinical strains; assay type: cell-based; details: microdilution, Muller Hinton broth-cation adjusted, 0.02% BSA, 0.2% acetic acid
Outline: as §1

[9] = tested on: Klebsiella pneumoniae clinical strains; assay type: cell-based; details: microdilution, Muller Hinton broth-cation adjusted, 0.02% BSA, 0.2% acetic acid
Outline: as §1

[10] = tested on: Pseudomonas aeruginosa clinical strains; assay type: cell-based; details: microdilution, Muller Hinton broth-cation adjusted, 0.02% BSA, 0.2% acetic acid
Outline: as §1

[11] = tested on: Candida albicans clinical strains; experiment: MIC, clinical yeast strains; assay type: cell-based; set-up: unit: μg/ml
Outline: as §1

[12] = tested on: C. glabrata clinical strains; experiment: MIC, clinical yeast strains; assay type: cell-based, Candida glabrata; set-up: unit: µg/ml
Outline: as §1

[13] = tested on: C. parapsilosis clinical strains; experiment: MIC, clinical yeast strains; assay type: cell-based, Candida parapsilosis; set-up: unit: µg/ml
Outline: as §1

[14] = tested on: C. quillermondiae clinical strains; experiment: MIC, clinical yeast strains; assay type: cell-based, Candida quillermondiae; set-up: unit: μg/ml; details: C. quillermondiae clinical yeast strain 1
Outline: as §1

[15] = tested on: all the bacteria and yeasts tested; assay type: cell-based
Outline: as §1

[16] = Acinetobacter baumannii clinical strain 1
[17] = Acinetobacter baumannii clinical strain 2
[18] = Acinetobacter baumannii clinical strain 3
[19] = Acinetobacter baumannii clinical strain 4
[20] = Acinetobacter baumannii clinical strain 5
[21] = Enterobacter cloacae clinical strain 1
[22] = Enterobacter cloacae clinical strain 2
[23] = Enterobacter cloacae clinical strain 3
[24] = Enterobacter cloacae clinical strain 4
[25] = Enterobacter cloacae clinical strain 5
[26] = Proteus mirabilis clinical strain 1
[27] = Proteus mirabilis clinical strain 2
[28] = Proteus mirabilis clinical strain 3
[29] = Proteus mirabilis clinical strain 4
[30] = Proteus mirabilis clinical strain 5
[31] = Serratia marcescens clinical strain 1
[32] = Serratia marcescens clinical strain 2
[33] = Serratia marcescens clinical strain 3
[34] = Serratia marcescens clinical strain 4
[35] = Serratia marcescens clinical strain 5
[36] = Staphylococcus aureus clinical strain 1
[37] = Staphylococcus aureus clinical strain 2
[38] = Staphylococcus aureus clinical strain 3
[39] = Staphylococcus aureus clinical strain 4
[40] = Staphylococcus aureus clinical strain 5
[41] = Streptococcus pneumoniae clinical strain 1
[42] = Streptococcus pneumoniae clinical strain 2
[43] = Streptococcus pneumoniae clinical strain 3
[44] = Streptococcus pneumoniae clinical strain 4
[45] = Streptococcus pneumoniae clinical strain 5
[46] = Escherichia coli clinical strain 1
[47] = Escherichia coli clinical strain 2
[48] = Escherichia coli clinical strain 3
[49] = Escherichia coli clinical strain 4
[50] = Escherichia coli clinical strain 5
[51] = Klebsiella pneumoniae clinical strain 1
[52] = Klebsiella pneumoniae clinical strain 2
[53] = Klebsiella pneumoniae clinical strain 3
[54] = Klebsiella pneumoniae clinical strain 4
[55] = Klebsiella pneumoniae clinical strain 5
[56] = Pseudomonas aeruginosa clinical strain 1
[57] = Pseudomonas aeruginosa clinical strain 2
[58] = Pseudomonas aeruginosa clinical strain 3
[59] = Pseudomonas aeruginosa clinical strain 4
[60] = Pseudomonas aeruginosa clinical strain 5

Gentamicin [reference compound]
0.5: Minimum inhibitory concentration [1, 16] | Minimum inhibitory concentration [1, 18] | Minimum inhibitory concentration [1, 19] | Minimum inhibitory concentration [5, 36] | Minimum inhibitory concentration [5, 37] | Minimum inhibitory concentration [5, 38] | Minimum inhibitory concentration [5, 39] | Minimum inhibitory concentration [5, 40] | Minimum inhibitory concentration [8, 46] | Minimum inhibitory concentration [8, 47] | Minimum inhibitory concentration [10, 57] | Minimum inhibitory concentration [10, 58] | Minimum inhibitory concentration [10, 59]
>128: Minimum inhibitory concentration [3, 28] | Minimum inhibitory concentration [3, 30]
1: Minimum inhibitory concentration [4, 31] | Minimum inhibitory concentration [4, 33] | Minimum inhibitory concentration [4, 34] | Minimum inhibitory concentration [4, 35] | Minimum inhibitory concentration [6, 45] | Minimum inhibitory concentration [8, 48] | Minimum inhibitory concentration [8, 49] | Minimum inhibitory concentration [8, 50] | Minimum inhibitory concentration [10, 56]
4: Minimum inhibitory concentration [9, 55]
0.25: Minimum inhibitory concentration [1, 17] | Minimum inhibitory concentration [1, 20] | Minimum inhibitory concentration [2, 21] | Minimum inhibitory concentration [2, 22] | Minimum inhibitory concentration [2, 23] | Minimum inhibitory concentration [2, 24] | Minimum inhibitory concentration [2, 25] | Minimum inhibitory concentration [7] | Minimum inhibitory concentration [9, 52] | Minimum inhibitory concentration [10, 60]
2: Minimum inhibitory concentration [3, 26] | Minimum inhibitory concentration [3, 27] | Minimum inhibitory concentration [4, 32] | Minimum inhibitory concentration [6, 41] | Minimum inhibitory concentration [6, 42] | Minimum inhibitory concentration [6, 43] | Minimum inhibitory concentration [6, 44] | Minimum inhibitory concentration [9, 51] | Minimum inhibitory concentration [9, 53] | Minimum inhibitory concentration [9, 54]
8: Minimum inhibitory concentration [3, 29]

CC[C@@H](C)[C@@H](NC(=O)[C@@H](Cc1c[nH]c2ccccc12)NC(=O)[C@H](N)CCCCN)C(=O)N[C@@H](C(=O)N[C@H](Cc1c[nH]c2ccccc12)C(=O)N[C@H](CCCNC(=N)N)C(=O)N[C@H](Cc1c[nH]c2ccccc12)C(=O)N[C@H](CCCNC(=N)N)C(=O)N[C@H](Cc1ccccc1)C(=O)N[C@H](CCCCN)C(=O)N[C@H](CCCNC(=N)N)C(=O)O)C(C)C [Chain201D] (H-[dK][dW][dI][dV][dW][dR][dW][dR][dF][dK][dR]-OH)
128: Minimum inhibitory concentration [4, 35]
64: Minimum inhibitory concentration [3, 28] | Minimum inhibitory concentration [4, 31] | Minimum inhibitory concentration [4, 32] | Minimum inhibitory concentration [4, 33] | Minimum inhibitory concentration [4, 34] | Minimum inhibitory concentration ([12]; C. glabrata clinical yeast strain 4)
64 to 128 µg/mL: MICs against Proteus mirabilis ([3]; clinical strains) | MICs against Serratia marcescens ([4]; clinical strains)
2: Minimum inhibitory concentration [2, 22] | Minimum inhibitory concentration [2, 23] | Minimum inhibitory concentration [2, 24] | Minimum inhibitory concentration [6, 43] | Minimum inhibitory concentration [9, 51] | Minimum inhibitory concentration [9, 52] | Minimum inhibitory concentration [9, 55] | Minimum inhibitory concentration [10, 59] | Minimum inhibitory concentration [10, 60]
32: Minimum inhibitory concentration [3, 27]
1: Minimum inhibitory concentration [2, 21] | Minimum inhibitory concentration [2, 25] | Minimum inhibitory concentration [5, 36] | Minimum inhibitory concentration [5, 37] | Minimum inhibitory concentration [5, 38] | Minimum inhibitory concentration [5, 39] | Minimum inhibitory concentration [5, 40] | Minimum inhibitory concentration [8, 47] | Minimum inhibitory concentration [8, 48] | Minimum inhibitory concentration [8, 49] | Minimum inhibitory concentration [8, 50]
>128: Minimum inhibitory concentration [3, 26] | Minimum inhibitory concentration [3, 29] | Minimum inhibitory concentration [3, 30]
8: Minimum inhibitory concentration [6, 41] | Minimum inhibitory concentration ([11]; Candida albicans clinical yeast strain 2) | Minimum inhibitory concentration ([11]; Candida albicans clinical yeast strain 3) | Minimum inhibitory concentration ([11]; Candida albicans clinical yeast strain 5) | Minimum inhibitory concentration ([12]; C. glabrata clinical yeast strain 1) | Minimum inhibitory concentration ([12]; C. glabrata clinical yeast strain 2) | Minimum inhibitory concentration ([12]; C. glabrata clinical yeast strain 3) | Minimum inhibitory concentration ([13]; C. parapsilosis clinical yeast strain 1) | Minimum inhibitory concentration ([13]; C. parapsilosis clinical yeast strain 2) | Minimum inhibitory concentration ([13]; C. parapsilosis clinical yeast strain 3) | Minimum inhibitory concentration ([13]; C. parapsilosis clinical yeast strain 4) | Minimum inhibitory concentration [14]
4: Minimum inhibitory concentration [1, 16] | Minimum inhibitory concentration [1, 17] | Minimum inhibitory concentration [1, 18] | Minimum inhibitory concentration [1, 19] | Minimum inhibitory concentration [1, 20] | Minimum inhibitory concentration [6, 42] | Minimum inhibitory concentration [6, 44] | Minimum inhibitory concentration [6, 45] | Minimum inhibitory concentration [9, 53] | Minimum inhibitory concentration [9, 54] | Minimum inhibitory concentration [10, 56] | Minimum inhibitory concentration [10, 57] | Minimum inhibitory concentration [10, 58]
0.5 to 32 µg/mL: MICs against all the bacteria and yeasts tested [15]
16: Minimum inhibitory concentration ([11]; Candida albicans clinical yeast strain 1) | Minimum inhibitory concentration ([11]; Candida albicans clinical yeast strain 4) | Minimum inhibitory concentration [8, 46]
